# Source: US20190282569A1, “STABLE PHARMACEUTICAL COMPOSITION” (ASTELLAS PHARMA INC., priority 2016, published 2019)
# How the values were obtained:
# [1] = tested on: epidermal growth factor receptor (EGFR) mutant kinase; conditions: disclosed in Patent literature 1 (WO 2013/108754); cited from earlier work
# [2] = Stability of the drug substance itself; assay type: physicochemical; conditions: drug substance alone, without pharmaceutical additives
stability of the drug itself (in words) [2],Compound,inhibitory action on an epidermal growth factor receptor (EGFR) mutant kinase [1]
–,"C=CC(=O)N1CC[C@@H](Oc2nc(Nc3ccc(N4CCC(N5CCN(C)CC5)CC4)cc3)c(C(N)=O)nc2CC)C1 [compound A, 5-{[(3R)-1-Acryloylpyrrolidin-3-yl]oxy}-6-ethyl-3-({4-[4-(4-methylpiperazin-1-yl)piperidin-1-yl]phenyl}amino)-pyrazine-2-carboxamide]",confirmed
stable,"C=CC(=O)N1CC[C@@H](Oc2nc(Nc3ccc(N4CCC(N5CCN(C)CC5)CC4)cc3)c(C(N)=O)nc2CC)C1.CS(=O)(=O)O [compound A monomethanesulfonate, 5-{[(3R)-1-acryloylpyrrolidin-3-yl]oxy}-6-ethyl-3-({4-[4-(4-methylpiperazin-1-yl)piperidin-1-yl]phenyl}amino)-pyrazine-2-carboxamide monomethanesulfonate]",–
